Reference: patent publication US20150157691A1, “Galectin-3 to Treat Ovarian Cancer” (Texas Tech University System, priority 2013, published 2015)

What was measured:
[1] = compared with available standard treatments; cited from earlier work
Pt1 = assay: Cell viability (ViaLight Plus), primary OC cells Pt1; format: cell-based, human; conditions: Gal-3C single agent, escalating concentrations (0, 2, 10, 20 μg/mL), 48 hours, on average
Description: (§1) Cells. The OC cell lines used in this study were SKOV-3 and ID8 (American Type Culture Collection, Manassas, Va., USA), while primary epithelial OC cells from two patients were obtained with approval from the Texas Tech University HSC IRB (L-Micro Study, IRB NUMBER: L04-095), and the patients' written informed consent. All OC cells were cultured in RPMI-1640 medium supplemented with 10% fetal bovine serum (FBS, Thermo Scientific, Rockford, Ill., USA) in 5% CO2 atmosphere at 37° C. Human Umbilical Vein Endothelial Cells (HUVEC, American Type Culture Collection) were maintained in EGM-2 medium supplemented with endothelial cells growth factors (Lonza, Houston, Tex., USA) and were used within 10 passages.
(§2) Cell viability. Cell proliferation was assessed with a ViaLight Plus Cell Proliferation and Cytotoxicity BioAssay Kit (Lonza, Walkersville, Md., USA) according to the directions of the manufacturer. […] Luminescence was measured with a 1-s integrated setting in a Berthold luminometer.
(§3) Administration of Gal-3C reduced OC cell viability when used as a single agent and improved the effects of paclitaxel. OC cells were treated with escalating concentrations of Gal-3C (0, 2, 10, and 20 μg/mL) for 48 hours, then viability was measure as described in methods, and expressed as percentage of control cells (treated with equal amounts of drug vehicle). […]

Pt2 = assay: Cell viability (ViaLight Plus), primary OC cells Pt2; format: cell-based, human; conditions: Gal-3C single agent, escalating concentrations (0, 2, 10, 20 μg/mL), 48 hours, on average
Description: as §1, §2, §3

[2] = test system: αvβ3 integrin clusters in HUVEC cells; assay: αvβ3 integrin clustering assay; format: cell-based, human; conditions: conditioned medium of OC cells pre-treated 48 h; 10 μg/mL Gal-3C, 8 nM paclitaxel or combined
Description: αvβ3 integrin clustering assay. HUVEC cells were cultured in 8-chamber slides coated with 10 μg/mL fibronectin (10^4 cells/chamber). Cells were incubated with conditioned medium of SKOV-3 cells (obtained as described for the tubule formation assay) for 20 minutes to allow integrin clustering, then fixed with 4% WN buffered (pH=7.5) paraformaldehyde in PBS (10 minutes at 37° C.). Then, cells were incubated with 10 μg/mL anti-integrin αvβ3 antibody (R&D Systems, 1:200 dilution in PBS) for 1 hour at RT, followed by two washing steps in PBS (5 minutes each) prior to the addition of FITC-anti-mouse IgG (1:1000 dilution in PBS) for 1 hour at RT. Microphotographs of randomly selected fields were acquired at 60× magnification by confocal microscopy (Leica TCS-SL Confocal Spectral Microscope System, Leica Microsystems, Buffalo Grove, Ill., USA).
Gal-3C blocked OC cell angiogenic potential and αvβ3 integrin clustering. To study the effects of Gal-3C on OC cells ability to induce the formation of new vessels, an in vitro tubule formation assay was carried out using HUVEC cells stimulated with the conditioned media (20% V/V) of OC cells pre-treated for 48 hours with 10 μg/mL Gal-3C, 8 nM paclitaxel, or a combination of both treatments. […] The amount of branching points was also calculated through the Wimasis WimTube software, as described hereinabove. […]

OC cells [3] = assay: Transwell migration assay of OC cells; format: cell-based; conditions: 48-hour treatment; 10 μg/mL Gal-3C, 8 nM paclitaxel or combined; compared with controls
Description: Migration assays. 4×10^5 cells were plated in 100 μL serum-free culture medium (supplemented with drugs or vehicle) in the top chambers of 24-well Transwell™ polycarbonate inserts (Corning Costar, NY, USA) with 8-μm pores. Complete culture medium (600 μL) was added to the bottom chamber. After incubation for 4 hours, cells on lower side of the filter were fixed, stained and counted as described (25).
After 48-hour treatment with 10 μg/mL Gal-3C, 8 nM paclitaxel, or combined drugs, OC cells were tested for in vitro invasivity and motility abilities as described in methods.

HUVEC cells [4] = assay: Vascular endothelial cell (HUVEC) Transwell migration assay with OC conditioned medium; format: cell-based, human; conditions: for HUVEC migration induced by conditioned media of treated OC cells: conditioned media from SKOV-3 cells treated 48 hours, 10 μg/mL Gal-3C or 8 nM paclitaxel, compared with controls; for HUVEC chemotaxis, direct effect of residual drugs: control OC-conditioned medium supplemented with 2 μg/mL Gal-3C, 1.6 nM paclitaxel, or combined, results not shown
Description: The experiments were run in triplicate and the results are expressed as the mean number of migrated cells in the presence of different stimuli.
After 48-hour treatments (10 μg/mL Gal-3C, 8 nM paclitaxel, or combined drugs), the conditioned media form SKOV-3 cells was harvested and tested for its ability to induce migration of HUVEC cells in a Transwell assay. […] To test if residual drugs in the conditioned media could inhibit HUVEC migration, a migration assay was performed in the presence of control OC-conditioned medium supplemented with 20% of drug amounts (2 μg/mL Gal-3C, 1.6 nM paclitaxel, and combined drugs).

ID8 = assay: Cell viability (ViaLight Plus), ID8; format: cell-based, murine; conditions: Gal-3C single agent, escalating concentrations (0, 2, 10, 20 μg/mL), 48 hours, on average
Description: (§4) Cell viability. Cell proliferation was assessed with a ViaLight Plus Cell Proliferation and Cytotoxicity BioAssay Kit (Lonza, Walkersville, Md., USA) according to the directions of the manufacturer. In brief, OC cells were seeded in 100 μL RPMI-1640 with 10% heat-inactivated FBS in 96-well plates (8×10^3/well). Each drugs/drug combination was tested in triplicate. Luminescence was measured with a 1-s integrated setting in a Berthold luminometer.
(§5) Administration of Gal-3C reduced OC cell viability when used as a single agent and improved the effects of paclitaxel. OC cells were treated with escalating concentrations of Gal-3C (0, 2, 10, and 20 μg/mL) for 48 hours, then viability was measure as described in methods, and expressed as percentage of control cells (treated with equal amounts of drug vehicle). […] On average, viability was reduced by 25% in SKOV-3, 50% in ID8, 29% in Pt1 and 57% in Pt2 cells. Then, in a separate set of experiments, OC cells were treated for 48 hours with 10 μg/mL Gal-3C, 8 nM paclitaxel, or combined 10 μg/mL Gal-3C+8 nM paclitaxel.

SKOV-3 = assay: Cell viability (ViaLight Plus), SKOV-3; format: cell-based, human; conditions: Gal-3C single agent, escalating concentrations (0, 2, 10, 20 μg/mL), 48 hours, on average
Description: as §4, §5

HUVEC cells [5] = assay: In vitro tubule formation (angiogenesis) assay with OC conditioned media; format: cell-based, human; conditions: for formation of vessel-like structures by HUVEC cells: conditioned media (20% V/V) of OC cells pre-treated 48 hours, 10 μg/mL Gal-3C, 8 nM paclitaxel or combination; for average number of branching points: conditioned media of 48-h treated OC cells, all tested OC cells, compared with vehicle-treated cells; for tubule formation, direct effect of drugs: conditioned media of untreated OC cells (20% V/V) supplemented with 10 μg/mL Gal-3C, 8 nM paclitaxel or both, results not shown
Description: Tubule formation assay. A capillary tubule formation assay was performed as previously described (25). Briefly, growth factor-reduced Matrigel™ (50 μL/well; Becton Dickinson) was added with 30 ng/mL recombinant basic fibroblastic growth factor (bFGF; R&D Systems) and incubated for 1 hour at 37° C. 2-h serum-starved HUVEC cells (5,000), were resuspended in 200 μL serum-free EGM-2 medium (Lonza) supplemented with 20% V/V conditioned medium from differently treated OC cells (obtained after 48-h treatment of OC cells with 10 μg/mL Gal-3C, 8 nM paclitaxel, the combination of both, or 0.6% V/V PBS as drug vehicle). HUVEC were then seeded onto the Matrigel™ and incubated at 37° C. and 5% CO2 for 16 hours to allow tubule formation. The assays were run in triplicate, and microphotographs were taken using 40× and 20× objectives with an inverted X71 microscope (Olympus). Pictures were also used to count the number of branching points originated by HUVEC cells, as a measure of the degree of angiogenesis, by the Wimasis WimTube software (Wimasis GmbH, Munich, Germany). Statistically significant differences in the number of branching points were analyzed by the Kruskal-Wallis test followed by a Dunns post-test, to compare all the treatment groups with each other.
Gal-3C blocked OC cell angiogenic potential and αvβ3 integrin clustering. To study the effects of Gal-3C on OC cells ability to induce the formation of new vessels, an in vitro tubule formation assay was carried out using HUVEC cells stimulated with the conditioned media (20% V/V) of OC cells pre-treated for 48 hours with 10 μg/mL Gal-3C, 8 nM paclitaxel, or a combination of both treatments. […] The amount of branching points was also calculated through the Wimasis WimTube software, as described hereinabove. […] A parallel set of experiments were performed using a mixture consisting of the 48-hour conditioned media of each untreated OC cell line (20% V/V) supplemented with 10 μg/mL Gal-3C, 8 nM paclitaxel, or 10 μg/mL Gal-3C+8 nM paclitaxel. […] This outcome on in vitro angiogenesis was correlated with an evident reduction in the clusters of αvβ3 integrins (FIG. 7).

Akt/NF-κB pathway = assay: Western blotting of Akt/NF-κB pathway activation in OC cells; format: cell-based; conditions: 48 hours, Western blot; for levels of phosphorylated, active NF-κB (P-p65) / phospho-Akt (P-Akt) levels: 10 μg/mL Gal-3C, 8 nM paclitaxel or combined
Description: Western blotting. Cells were harvested and washed twice with PBS, then lysed (25), and resolved on 12% Bis-Tris (Bis(2-hydroxyethyl)-amino-tris(hydroxymethyl)-methane) poly-acrylamide gel (Invitrogen) and then electrotransferred onto 0.2 μm nitrocellulose membrane. After rinsing in PBS-Tween, the blot was incubated in protein-free blocking buffer (Pierce/Thermo) at 4° C. overnight, then incubated with the indicated primary antibodies (Cell Signaling Technology, Inc., Danvers, Mass. USA) diluted in blocking buffer for 2 hours at RT. After washing 5 times with PBS-Tween, the blot was incubated with matched horseradish peroxidase-coupled secondary antibodies, and developed with the ECL Western blotting Detection System from Perkin-Elmer Life Sciences (Boston, Mass., USA).
Gal-3C reversed the effect of paclitaxel on NF-κB activation by reducing the phosphorylation of Akt. OC cells treated for 48 hours with 10 μg/mL Gal-3C, 8 nM paclitaxel, or combined treatments as described above, then protein extracts were analyzed by Western blotting. […] Increased or decreased levels of p65 phosphorylation (P-p65) were in accordance with higher or lower levels (respectively) of IKB and IKKα/β phosphorylation, as expected. […] To rule out the possibility that alterations in the phosphorylation of p-65, IKB, IKK, or Akt were the results of modulations in the expression levels, total p-65, IKB, IKK, or Akt (phosphorylated and not-phosphorylated forms) were also examined (FIGS. 3A and 3B).

OC cells [6] = assay: Matrigel invasion assay; format: cell-based; conditions: 48-hour treatment; 10 μg/mL Gal-3C, 8 nM paclitaxel or combined; compared with controls
Description: Invasion assay. OC invasion potential was measured as described (25), using Transwell™ polycarbonate inserts (5-μm pore size).
Gal-3C reduced OC invasion and migration alone and in combination with paclitaxel. After 48-hour treatment with 10 μg/mL Gal-3C, 8 nM paclitaxel, or combined drugs, OC cells were tested for in vitro invasivity and motility abilities as described in methods.

[7] = test system: OC cells (SKOV-3, ID8, Pt1, Pt2); assay: Cell viability, statements for all OC cells tested; format: cell-based; conditions: 48 hours
Description: as §4, §5

Row | Molecule | toxicity profile [1] | viability reduced (percentage of control cells) (Pt1) [%] | viability reduced (percentage of control cells) (Pt2) [%] | αvβ3 integrin clusters in HUVEC cells [2] | OC cell migration (OC cells [3]) | HUVEC migration induced by conditioned media of treated OC cells (HUVEC cells [4]) | HUVEC chemotaxis, direct effect of residual drugs (HUVEC cells [4]) | viability reduced (percentage of control cells) (ID8) [%] | viability reduced (percentage of control cells) (SKOV-3) [%] | formation of vessel-like structures by HUVEC cells (HUVEC cells [5]) | average number of branching points (HUVEC cells [5]) | tubule formation, direct effect of drugs (HUVEC cells [5]) | phosphorylated IKKB, IKK levels (Akt/NF-κB pathway; 10 μg/mL Gal-3C alone, compared with controls) | levels of phosphorylated, active NF-κB (P-p65) (Akt/NF-κB pathway) | phospho-Akt (P-Akt) levels (Akt/NF-κB pathway) | OC cell invasion (OC cells [6]) | concentration from which cell viability is significantly reduced ([7]; 0, 2, 10, 20 μg/mL tested) [µg/mL] | cell viability, comparison between treatments ([7]; 10 μg/mL Gal-3C, 8 nM paclitaxel or combined)
1 | Gal-3C: truncated, dominant-negative form of Galectin-3; last 143 carboxy-terminal amino acid residues of human Galectin-3 (SEQ ID NO. 4) | very low toxicity profile | 29 | 57 | completely abrogated | significantly reduced | significant effect | did not significantly affect HUVEC chemotaxis | 50 | 25 | significantly reduce | significantly reduced | unable to significantly affect tubule formation | reduction | reduction | reduction | significantly reduced | ≥ 10 | more effective in reducing cell viability compared with paclitaxel in all cell lines except SKOV-3
2 | CC(=O)O[C@H]1C(=O)[C@@]2(C)[C@H]([C@H](OC(=O)c3ccccc3)[C@]3(O)C[C@H](OC(=O)[C@H](O)[C@@H](NC(=O)c4ccccc4)c4ccccc4)C(C)=C1C3(C)C)[C@]1(OC(C)=O)CO[C@@H]1C[C@@H]2O [paclitaxel, Paclitaxel, reference compound] | – | – | – | still preserved the ability to induce αvβ3 integrin cluster in HUVEC cells (even if at a lower extent compared with control) | – | unable to reduce the production of HUVEC chemotactic factors | did not significantly affect HUVEC chemotaxis | – | – | significantly reduce | significantly reduced | unable to significantly affect tubule formation | – | increased | increased | – | – | –
